Test [1] concerns the target T1, recombinant human ALK5 (TGF-βR1) protein (Homo sapiens, UniProt P36897).
T1 construct: purchased Life Technologies PR9075A
T1 sequence (P36897 34-503): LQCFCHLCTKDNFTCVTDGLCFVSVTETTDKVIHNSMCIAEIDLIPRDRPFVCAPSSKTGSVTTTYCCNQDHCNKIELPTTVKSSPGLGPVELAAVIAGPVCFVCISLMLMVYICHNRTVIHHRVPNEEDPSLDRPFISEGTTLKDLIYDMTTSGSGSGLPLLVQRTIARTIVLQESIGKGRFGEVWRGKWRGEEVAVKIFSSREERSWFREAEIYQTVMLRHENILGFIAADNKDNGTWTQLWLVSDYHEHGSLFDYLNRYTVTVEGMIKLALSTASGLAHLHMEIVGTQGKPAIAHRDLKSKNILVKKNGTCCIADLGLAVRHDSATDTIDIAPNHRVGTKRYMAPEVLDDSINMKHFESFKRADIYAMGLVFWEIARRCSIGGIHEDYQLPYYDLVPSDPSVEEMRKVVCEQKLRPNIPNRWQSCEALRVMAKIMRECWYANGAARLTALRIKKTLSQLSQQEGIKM
Put plainly: Biochemical ALK5 (TGF-βR1) assay to measure pKi (LANCE Ultra ULight kinase assay). The following applies: apparent pKi from pIC50 by Cheng-Prusoff, read-out: ALK5 pKi (converted). Summed up: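 Compounds (10 μM to 25 pM) were preincubated 60 min at room temperature with enzyme, then reactions were started with ATP (125 μM stock, 5× final) and run 60 min at 37 °C. EDTA-containing Eu-anti-phospho-Topo IIα (Thr1342) antibody stopped the reaction; TR-FRET read at 665 nm. pIC50 from 4-parameter fit, converted to pKi via Cheng-Prusoff.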
(Time-resolved FRET reads energy transfer from a long-lived donor to a nearby acceptor.)

In test [2] the test system is TGF-β-stimulated SMAD3 phosphorylation in BEAS-2B cells. Put plainly: Cellular ALK5 potency assay, inhibition of TGF-β stimulated pSMAD3 formation in BEAS-2B cells. In kind it is cell-based. The following applies: Homo sapiens; inhibition of TGF-β stimulated pSMAD3 formation, BEAS-2B cells; read-out: BEAS2B pIC50 (converted). Summed up:
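AlphaLISA pSMAD3 read-out, beads incubated overnight. Human BEAS-2B cells: 1 h compound preincubation (37 °C, 5% CO2), then 30 min TGF-β at 10 ng/mL final, immediate lysis. Values are pIC50 relative to stimulated, compound-free baseline.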

Results on 25 molecules are retold here after US11590116B2 (THERAVANCE BIOPHARMA R&D IP, LLC, priority 2019, dated 2023).

In the case of `Cc1cccc(-c2[nH]cnc2-c2ccc3ncc(N4CCC(C(=O)O[C@@H]5CCN(C)C5)CC4)cc3c2)n1` [Compound 702, [(3R)-1-methylpyrrolidin-3-yl] 1-[6-[5-(6-methyl-2-pyridyl)-1H-imidazol-4-yl]-3-quinolyl]piperidine-4-carboxylate], in test [1], the Ki is 0.0398 to 0.316 nM. Besides, the IC50 in test [2] was 25.1 to 158 nM.

Turning to `Cc1cccc(-c2[nH]cnc2-c2ccc3ncc(-c4cc(C(=O)OCC5CNC5)cs4)cc3c2)n1` [Compound 1070, azetidin-3-ylmethyl 5-[6-[5-(6-methyl-2-pyridyl)-1H-imidazol-4-yl]-3-quinolyl]thiophene-3-carboxylate], in test [1], the Ki is under 0.0316 nM. The IC50 in test [2] was 25.1 to 158 nM.

Regarding `CNCCn1cc(-c2cnc3ccc(-c4nn[nH]c4-c4cccc(C)n4)cc3c2)cn1` [Compound 125, N-methyl-2-(4-(6-(5-(6-methylpyridin-2-yl)-1H-1,2,3-triazol-4-yl)quinolin-3-yl)-1H-pyrazol-1-yl)ethan-1-amine], the Ki in test [1] is under 0.0316 nM. Further, the IC50 in test [2] is 25.1 to 158 nM.

Consider `Cc1cccc(-c2n[nH]cc2-c2ccc3ncc(N4C[C@@H]5CCN[C@@H]5C4)cc3n2)n1` (racemic) [Compound 598, 2-[3-(6-methyl-2-pyridyl)-1H-pyrazol-4-yl]-7-[rac-(3aS,6aS)-2,3,3a,4,6,6a-hexahydro-1H-pyrrolo[2,3-c]pyrrol-5-yl]-1,5-naphthyridine], for which, in test [1], the Ki was under 0.0316 nM. Also, the IC50 in test [2] was 25.1 to 158 nM.

For the molecule `Cc1cccc(-c2[nH]cnc2-c2ccc3ncc(C(=O)O[C@H]4CC[C@@H](N)CC4)cc3c2)n1` [Compound 1066, (4-aminocyclohexyl) 6-[5-(6-methyl-2-pyridyl)-1H-imidazol-4-yl]quinoline-3-carboxylate], the Ki in test [1] was 0.398 to 3.16 nM. For the same molecule, the IC50 in test [2] is 200 to 1260 nM.

Take `Cc1cccc(-c2[nH]cnc2-c2ccc3ncc(N(C)CC4CNC4)cc3c2)n1` [Compound 6, N-(azetidin-3-ylmethyl)-N-methyl-6-[5-(6-methyl-2-pyridyl)-1H-imidazol-4-yl]quinolin-3-amine]: the Ki in test [1] was 0.0398 to 0.316 nM. Also, the IC50 in test [2] was 25.1 to 158 nM.

`Cc1cccc(-c2n[nH]cc2-c2ccc3ncc(N(C)CC4CNC4)cc3n2)n1` [Compound 357, N-(azetidin-3-ylmethyl)-N-methyl-6-[3-(6-methyl-2-pyridyl)-1H-pyrazol-4-yl]-1,5-naphthyridin-3-amine]: in test [1], the Ki is under 0.0316 nM. Further, the IC50 in test [2] was 25.1 to 158 nM.

As to `Cc1cccc(-c2[nH]cnc2-c2ccc3ncc(-c4ccc(C(=O)OCCN5C[C@@H](C)N[C@@H](C)C5)cn4)cc3c2)n1` [Compound 1168, 2-[rac-(3S,5R)-3,5-dimethylpiperazin-1-yl]ethyl 6-[6-[5-(6-methyl-2-pyridyl)-1H-imidazol-4-yl]-3-quinolyl]pyridine-3-carboxylate], the Ki in test [1] is 0.0398 to 0.316 nM. Besides, the IC50 in test [2] was 25.1 to 158 nM.

For the molecule `Cc1cccc(-c2[nH]cnc2-c2ccc3ncc(C4=C[C@@H](C)N[C@H](C)C4)cc3c2)n1` [Compound 8, 3-[(2R,6R)-2,6-dimethyl-1,2,3,6-tetrahydropyridin-4-yl]-6-[5-(6-methyl-2-pyridyl)-1H-imidazol-4-yl]quinoline], the Ki in test [1] was 0.0398 to 0.316 nM. Besides, the IC50 in test [2] is 25.1 to 158 nM.

As for `Cc1cccc(-c2[nH]cnc2-c2ccc3ncc(C(=O)OCCCN4CCNCC4)cc3c2)n1` [Compound 897, 3-(piperazin-1-yl)propyl 6-(5-(6-methylpyridin-2-yl)-1H-imidazol-4-yl)quinoline-3-carboxylate], in test [1], the Ki was 0.0398 to 0.316 nM. The IC50 in test [2] is 25.1 to 158 nM.

As for `CN[C@H]1CC[C@@H](OC(=O)c2cnc3ccc(-c4cn[nH]c4-c4cccc(C)n4)cc3c2)CC1` [Compound 1195, [4-(methylamino)cyclohexyl] 6-[5-(6-methyl-2-pyridyl)-1H-pyrazol-4-yl]quinoline-3-carboxylate], the Ki in test [1] was 0.0398 to 0.316 nM. The IC50 in test [2] is 25.1 to 158 nM.

As for `Cc1cccc(-c2n[nH]cc2-c2ccc3ncc(-c4c(C)nn5c4NCCC5)cc3n2)n1` [Compound 212, 2-[3-(6-methyl-2-pyridyl)-1H-pyrazol-4-yl]-7-(2-methyl-4,5,6,7-tetrahydropyrazolo[1,5-a]pyrimidin-3-yl)-1,5-naphthyridine], the Ki in test [1] was 0.398 to 3.16 nM. For the same molecule, in test [2], the IC50 is 25.1 to 158 nM.

As to `COC(=O)[C@@H]1CN(CCNc2cnc3ccc(-c4nc[nH]c4-c4cccc(C)n4)cc3c2)CCN1` [Compound 717, methyl (2S)-4-[2-[[6-[5-(6-methyl-2-pyridyl)-1H-imidazol-4-yl]-3-quinolyl]amino]ethyl]piperazine-2-carboxylate], in test [1], the Ki was 0.0398 to 0.316 nM. Also, in test [2], the IC50 is 25.1 to 158 nM.

With `Cc1cccc(-c2[nH]cnc2-c2ccc3ncc(-c4cnn(C5CCCNC5)c4)cc3c2)n1` (centres unmarked) [Compound 405, 6-[5-(6-methyl-2-pyridyl)-1H-imidazol-4-yl]-3-[1-(3-piperidyl)pyrazol-4-yl]quinoline], the Ki in test [1] is under 0.0316 nM. In addition, in test [2], the IC50 was 25.1 to 158 nM.

Take `Cc1cccc(-c2[nH]cnc2-c2ccc3ncc(-c4ccnc(C(=O)O)c4)cc3c2)n1` [Compound 1092, 4-[6-[5-(6-methyl-2-pyridyl)-1H-imidazol-4-yl]-3-quinolyl]pyridine-2-carboxylic acid]: the Ki in test [1] was under 0.0316 nM. For the same molecule, the IC50 in test [2] is 1580 to 10000 nM.

Turning to `Cc1cccc(-c2[nH]cnc2-c2ccc3ncc(-c4cccc(C(=O)OCCN5CCNCC5)n4)cc3c2)n1` [Compound 1151, 2-piperazin-1-ylethyl 6-[6-[5-(6-methyl-2-pyridyl)-1H-imidazol-4-yl]-3-quinolyl]pyridine-2-carboxylate], the Ki in test [1] was 0.0398 to 0.316 nM. Moreover, the IC50 in test [2] is 200 to 1260 nM.

For `Cc1cccc(-c2n[nH]cc2-c2ccc3nccc(CO)c3n2)n1` [Compound 801, [6-[3-(6-methyl-2-pyridyl)-1H-pyrazol-4-yl]-1,5-naphthyridin-4-yl]methanol], the Ki in test [1] is 0.398 to 3.16 nM. For the same molecule, the IC50 in test [2] is 200 to 1260 nM.

Regarding `CNCCn1cc(-c2cnc3ccc(-c4c(-c5cccc(C)n5)nn5cc(Cl)ccc45)cc3c2)cn1` [Compound 605, 2-[4-[6-[6-chloro-2-(6-methyl-2-pyridyl)pyrazolo[1,5-a]pyridin-3-yl]-3-quinolyl]pyrazol-1-yl]-N-methyl-ethanamine], in test [1], the Ki is 0.0398 to 0.316 nM. The IC50 in test [2] is 200 to 1260 nM.

As to `Cc1cccc(-c2[nH]cnc2-c2ccc3ncc(NCCN4CCN(C(C)C)CC4)cc3n2)n1` [Compound 104, N-(2-(4-isopropylpiperazin-1-yl)ethyl)-6-(5-(6-methylpyridin-2-yl)-1H-imidazol-4-yl)-1,5-naphthyridin-3-amine], in test [1], the Ki is 0.0398 to 0.316 nM. Moreover, the IC50 in test [2] was 25.1 to 158 nM.

In the case of `Cc1nc(-c2nc3ccccn3c2-c2ccc3ncc(Br)cc3n2)ccc1F` [Compound 453, 7-bromo-2-[2-(5-fluoro-6-methyl-2-pyridyl)imidazo[1,2-a]pyridin-3-yl]-1,5-naphthyridine], the Ki in test [1] is 0.398 to 3.16 nM. Further, the IC50 in test [2] was 1580 to 10000 nM.

On to `Cc1cccc(-c2n[nH]cc2-c2ccc3ncc(N4C[C@@H](C)N(C)C[C@H]4C)cc3n2)n1` (racemic) [Compound 296, 2-[3-(6-methyl-2-pyridyl)-1H-pyrazol-4-yl]-7-[rac-(2R,5R)-2,4,5-trimethylpiperazin-1-yl]-1,5-naphthyridine], for which, in test [1], the Ki is 0.0398 to 0.316 nM. In addition, in test [2], the IC50 was 25.1 to 158 nM.

With `Cc1cccc(-c2[nH]cnc2-c2ccc3ncc(-c4ncc(C(=O)OC5CNC5)s4)cc3c2)n1` [Compound 1018, azetidin-3-yl 2-(6-(5-(6-methylpyridin-2-yl)-1H-imidazol-4-yl)quinolin-3-yl)thiazole-5-carboxylate], the Ki in test [1] is 0.0398 to 0.316 nM. Further, the IC50 in test [2] is 25.1 to 158 nM.

`CCN1CCN(CCNc2cnc3ccc(-c4c[nH]nc4-c4cccc(C)n4)nc3c2)CC1` [Compound 508, N-[2-(4-ethylpiperazin-1-yl)ethyl]-6-[3-(6-methyl-2-pyridyl)-1H-pyrazol-4-yl]-1,5-naphthyridin-3-amine]: the Ki in test [1] is 0.0398 to 0.316 nM. Moreover, in test [2], the IC50 is 25.1 to 158 nM.

For `Cc1cccc(-c2[nH]cnc2-c2ccc3ncc(-c4ccc(C(=O)O[C@@H]5CCN(C)C5)s4)cc3c2)n1` [Compound 1009, (R)-1-methylpyrrolidin-3-yl 5-(6-(5-(6-methylpyridin-2-yl)-1H-imidazol-4-yl)quinolin-3-yl)thiophene-2-carboxylate], the Ki in test [1] was 0.0398 to 0.316 nM. The IC50 in test [2] is 25.1 to 158 nM.

As for `CNCCn1cc(-c2cnc3ccc(-c4c(-c5cccc(C)n5)[nH]c5ccccc45)cc3c2)cn1` [Compound 162, N-methyl-2-[4-[6-[2-(6-methyl-2-pyridyl)-1H-indol-3-yl]-3-quinolyl]pyrazol-1-yl]ethanamine], the Ki in test [1] is 0.0398 to 0.316 nM. The IC50 in test [2] is 200 to 1260 nM.
